Target: T1, recombinant human liver glycogen phosphorylase (HLGPa) (Homo sapiens, UniProt P06737)
T1 construct: made in house; host or cells: Sf9 insect cells (unpurified cell lysate used as enzyme solution)
T1 sequence (P06737 1-847): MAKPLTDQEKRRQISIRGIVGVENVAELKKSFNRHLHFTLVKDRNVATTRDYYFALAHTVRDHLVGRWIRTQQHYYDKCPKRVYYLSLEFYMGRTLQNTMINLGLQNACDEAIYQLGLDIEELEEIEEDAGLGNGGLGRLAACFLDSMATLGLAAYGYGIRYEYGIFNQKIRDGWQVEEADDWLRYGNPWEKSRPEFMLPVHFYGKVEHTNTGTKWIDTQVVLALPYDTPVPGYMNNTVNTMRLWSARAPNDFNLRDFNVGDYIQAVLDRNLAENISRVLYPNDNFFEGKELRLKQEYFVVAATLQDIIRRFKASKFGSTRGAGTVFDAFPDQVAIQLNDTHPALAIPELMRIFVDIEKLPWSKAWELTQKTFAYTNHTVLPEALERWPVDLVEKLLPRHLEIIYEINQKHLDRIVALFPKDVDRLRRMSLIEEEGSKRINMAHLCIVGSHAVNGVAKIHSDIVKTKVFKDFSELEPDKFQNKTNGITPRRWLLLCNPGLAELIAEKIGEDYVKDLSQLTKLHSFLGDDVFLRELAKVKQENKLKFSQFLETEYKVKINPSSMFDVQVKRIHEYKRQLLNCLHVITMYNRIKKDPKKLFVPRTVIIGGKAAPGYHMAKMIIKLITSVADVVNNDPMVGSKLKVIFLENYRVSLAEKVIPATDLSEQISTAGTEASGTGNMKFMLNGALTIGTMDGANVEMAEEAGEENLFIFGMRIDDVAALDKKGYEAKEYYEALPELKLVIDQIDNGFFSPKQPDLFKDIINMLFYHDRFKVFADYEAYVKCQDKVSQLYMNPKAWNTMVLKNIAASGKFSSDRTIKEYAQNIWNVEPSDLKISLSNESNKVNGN
Assay: Measurement of liver glycogen phosphorylase activity (enzyme inhibitory activity against HLGPa)
Assay type: biochemical
Conditions: Sf9 cell lysate expressing recombinant enzyme; reverse reaction (glycogen synthesis from G1-P), phosphate by malachite green, 60 min room temperature
Procedure: Measurement Method of Liver Glycogen Phosphorylase Activity
The measurement of the glycogen phosphorylase activity was performed by measuring the concentration of phosphoric acic produced by a reverse reaction, that is, a reaction wherein the glycogen phosphorylase synthesizes glycogen from G1-P. A cell lysate of Sf9 cells that forcibly expressed recombinant human liver glycogen phosphorylase was diluted to a protein amount of 80 μg/mL with 1 mM imidazole-hydrochloric acid buffer (pH 7.0, containing 0.2 mM PMSF, 250 mM NaCl, 0.025% BSA) and the dilute cell lysate was used as an enzyme solution of human liver glycogen phosphorylase. As a substrate solution, 25 mM Tris-HCl buffer (pH 7.2, containing 250 mM KCl, 6.25 mM MgCl2, 6.25 mM EGTA, 1.25 mM glucose-1-phosphate, 2.5 mg/ml glycogen, 7.5 mM glucose) was used. The test drug was dissolved in 0.5% dimethyl sulfoxide (DMSO). To a mixture of the test drug (10 μl) and the substrate solution (20 μl) was added an enzyme solution (20 μl) to start the enzyme reaction. As a control, 0.5% DMSO was added instead of the test drug. One free of addition of enzyme was used as a blank. The mixture was reacted at room temperature for 60 min, and a malachite green solution (50 μl) was added. The mixture was further reacted at room temperature for 20 min and absorbance at 650 nm was measured. An enzyme solution was added to the blank simultaneously with the malachite green solution and the measurement was done in the same manner. The percent inhibition (%) of the test drug was calculated from ((value of control−value of the test drug)/(value of control−value of blank))×100 (%).

| IC50 [nM] | SMILES |
| --- | --- |
| 360 | CC(=O)N[C@H](C(=O)NNC(=O)c1cc2cc(Cl)ccc2[nH]1)c1ccccc1 (stereo in doubt) [Example 5-19, N-(2-(2-(5-chloro-1H-indole-2-carbonyl)hydrazino)-2-oxo-1-phenylethyl)acetamide] |
| 38 | O=C(NNC(=O)c1cc2cc(Cl)ccc2[nH]1)c1ccccc1 [Example 1, benzoic acid 2-(5-chloro-1H-indole-2-carbonyl)hydrazide] |
| 37 | O=C(NNC(=O)c1ccccc1O)c1cc2cc(Cl)ccc2[nH]1 [Example 1-3, 2-hydroxybenzoic acid 2-(5-chloro-1H-indole-2-carbonyl)hydrazide] |
| 73 | O=C(NNC(=O)c1cc2cc(F)ccc2[nH]1)c1ccccc1 [Example 1-9, benzoic acid 2-(5-fluoro-1H-indole-2-carbonyl)hydrazide] |
| 200 | O=C(NNC(=O)C1CCCCC1)c1cc2cc(F)ccc2[nH]1 [Example 1-10, cyclohexanecarboxylic acid 2-(5-fluoro-1H-indole-2-carbonyl)hydrazide] |
| 72 | O=C(NNC(=O)c1cccs1)c1cc2cc(F)ccc2[nH]1 [Example 1-11, thiophene-2-carboxylic acid 2-(5-fluoro-1H-indole-2-carbonyl)hydrazide] |
| 790 | O=C(NNC(=O)c1cc2cc(Cl)ccc2[nH]1)c1ccc([N+](=O)[O-])cc1 [Example 1-12, 4-nitrobenzoic acid 2-(5-chloro-1H-indole-2-carbonyl)hydrazide] |
| 72 | Cc1ccccc1C(=O)NNC(=O)c1cc2cc(Cl)ccc2[nH]1 [Example 1-13, 2-methylbenzoic acid 2-(5-chloro-1H-indole-2-carbonyl)hydrazide] |
| 130 | Cc1ccc(C(=O)NNC(=O)c2cc3cc(Cl)ccc3[nH]2)cc1 [Example 1-14, 4-methylbenzoic acid 2-(5-chloro-1H-indole-2-carbonyl)hydrazide] |
| 120 | COc1ccccc1C(=O)NNC(=O)c1cc2cc(Cl)ccc2[nH]1 [Example 1-15, 2-methoxybenzoic acid 2-(5-chloro-1H-indole-2-carbonyl)hydrazide] |
| 73 | COc1cccc(C(=O)NNC(=O)c2cc3cc(Cl)ccc3[nH]2)c1 [Example 1-16, 3-methoxybenzoic acid 2-(5-chloro-1H-indole-2-carbonyl)hydrazide] |
| 99 | Cc1cccc(C(=O)NNC(=O)c2cc3cc(Cl)ccc3[nH]2)c1 [Example 1-18, 3-methylbenzoic acid 2-(5-chloro-1H-indole-2-carbonyl)hydrazide] |
| 91 | O=C(NNC(=O)c1ccccc1Cl)c1cc2cc(Cl)ccc2[nH]1 [Example 1-19, 2-chlorobenzoic acid 2-(5-chloro-1H-indole-2-carbonyl)hydrazide] |
| 35 | O=C(NNC(=O)c1cc2cc(Cl)ccc2[nH]1)c1cccc(Cl)c1 [Example 1-20, 3-chlorobenzoic acid 2-(5-chloro-1H-indole-2-carbonyl)hydrazide] |
| 49 | O=C(NNC(=O)c1cc2cc(Cl)ccc2[nH]1)c1ccc(Cl)cc1 [Example 1-21, 4-chlorobenzoic acid 2-(5-chloro-1H-indole-2-carbonyl)hydrazide] |
| 75 | O=C(NNC(=O)C1CCCCC1)c1cc2cc(Cl)ccc2[nH]1 [Example 1-23, cyclohexanecarboxylic acid 2-(5-chloro-1H-indole-2-carbonyl)hydrazide] |
| 170 | O=C(NNC(=O)c1ccc(Cl)cc1Cl)c1cc2cc(Cl)ccc2[nH]1 [Example 1-24, 2,4-dichlorobenzoic acid 2-(5-chloro-1H-indole-2-carbonyl)hydrazide] |

| IC50 [nM] | SMILES |
| --- | --- |
| 140 | O=C(NNC(=O)c1c(Cl)cccc1Cl)c1cc2cc(Cl)ccc2[nH]1 [Example 1-25, 2,6-dichlorobenzoic acid 2-(5-chloro-1H-indole-2-carbonyl)hydrazide] |
| 18 | O=C(NNC(=O)c1ccc(F)cc1F)c1cc2cc(Cl)ccc2[nH]1 [Example 1-26, 2,4-difluorobenzoic acid 2-(5-chloro-1H-indole-2-carbonyl)hydrazide] |
| 47 | O=C(NNC(=O)c1ccccc1-c1ccccc1)c1cc2cc(Cl)ccc2[nH]1 [Example 1-27, biphenyl-2-carboxylic acid 2-(5-chloro-1H-indole-2-carbonyl)hydrazide] |
| 49 | O=C(NNC(=O)c1cc2cc(Cl)ccc2[nH]1)c1cccc(F)c1 [Example 1-28, 3-fluorobenzoic acid 2-(5-chloro-1H-indole-2-carbonyl)hydrazide] |
| 15 | O=C(NNC(=O)c1cc2cc(Cl)ccc2[nH]1)c1ccc(F)cc1 [Example 1-29, 4-fluorobenzoic acid 2-(5-chloro-1H-indole-2-carbonyl)hydrazide] |
| 240 | O=C(NNC(=O)c1cc2cc(Cl)ccc2[nH]1)c1cccc(C(F)(F)F)c1 [Example 1-30, 3-trifluoromethylbenzoic acid 2-(5-chloro-1H-indole-2-carbonyl)hydrazide] |
| 350 | O=C(NNC(=O)c1ccccc1C(F)(F)F)c1cc2cc(Cl)ccc2[nH]1 [Example 1-32, 2-trifluoromethylbenzoic acid 2-(5-chloro-1H-indole-2-carbonyl)hydrazide] |
| 86 | Cc1ccc2[nH]c(C(=O)NNC(=O)c3ccccc3)cc2c1 [Example 1-33, benzoic acid 2-(5-methyl-1H-indole-2-carbonyl)hydrazide] |
| > 100 | CC(C)c1ccc2[nH]c(C(=O)NNC(=O)c3ccccc3N)cc2c1 [Example 1-36, 2-aminobenzoic acid 2-(5-isopropyl-1H-indole-2-carbonyl)hydrazide] |
| > 100 | CC(C)c1ccc2[nH]c(C(=O)NNC(=O)c3ccc(F)cc3N)cc2c1 [Example 1-37, 2-amino-4-fluorobenzoic acid 2-(5-isopropyl-1H-indole-2-carbonyl)hydrazide] |
| > 100 | Nc1ccccc1C(=O)NNC(=O)c1cc2cc(F)ccc2[nH]1 [Example 1-38, 2-aminobenzoic acid 2-(5-fluoro-1H-indole-2-carbonyl)hydrazide] |
| 810 | Nc1ccccc1C(=O)NNC(=O)c1cc2ccc(Cl)cc2[nH]1 [Example 1-39, 2-aminobenzoic acid 2-(6-chloro-1H-indole-2-carbonyl)hydrazide] |
| 310 | Nc1cnccc1C(=O)NNC(=O)c1cc2cc(Cl)ccc2[nH]1 [Example 1-41, 3-aminoisonicotinic acid 2-(5-chloro-1H-indole-2-carbonyl)hydrazide] |
| 260 | O=C(NNC(=O)c1cc2cc(Cl)ccc2[nH]1)c1ccncc1 [Example 1-42, isonicotinic acid 2-(5-chloro-1H-indole-2-carbonyl)hydrazide] |
| 95 | O=C(NNC(=O)c1cc2cc(Cl)ccc2[nH]1)c1cccnc1 [Example 1-43, nicotinic acid 2-(5-chloro-1H-indole-2-carbonyl)hydrazide] |
| 290 | CC(=O)Nc1cccc(C(=O)NNC(=O)c2cc3cc(Cl)ccc3[nH]2)c1 [Example 1-46, N-(3-(2-(5-chloro-1H-indole-2-carbonyl)hydrazinocarbonyl)phenyl)acetamide] |
| 660 | CC(=O)Nc1ccccc1C(=O)NNC(=O)c1cc2cc(Cl)ccc2[nH]1 [Example 1-47, N-(2-(2-(5-chloro-1H-indole-2-carbonyl)hydrazinocarbonyl)phenyl)acetamide] |

Source: US20050054696A1, “Indole compounds and medicinal use thereof” (priority 2001, published 2005)
